Laboratory results from paper PMC8971525, “A New Strategy for Multitarget Drug Discovery/Repositioning Through the Identification of Similar 3D Amino Acid Patterns Among Proteins Structures: The Case of Tafluprost and its Effects on Cardiac Ion Channels” (Frontiers in Pharmacology, 2022).

Key:
TASK-1 = target: T1, TASK-1 (Homo sapiens, UniProt O14649); test: two-electrode voltage clamp in Xenopus oocytes, block of outward current; format: cell-based
T1 construct: gene KCNK3; human TASK-1 (KCNK3, NM_002246) cRNA expressed in Xenopus laevis oocytes

NaV1.5 = target: T2, NaV1.5 (Homo sapiens, UniProt Q14524); test: two-electrode voltage clamp in Xenopus oocytes, block of inward current; format: cell-based
T2 construct: gene SCN5A; human Nav1.5 (hH1, M77235) cRNA expressed in Xenopus laevis oocytes
T2 sequence (Q14524 whole entry): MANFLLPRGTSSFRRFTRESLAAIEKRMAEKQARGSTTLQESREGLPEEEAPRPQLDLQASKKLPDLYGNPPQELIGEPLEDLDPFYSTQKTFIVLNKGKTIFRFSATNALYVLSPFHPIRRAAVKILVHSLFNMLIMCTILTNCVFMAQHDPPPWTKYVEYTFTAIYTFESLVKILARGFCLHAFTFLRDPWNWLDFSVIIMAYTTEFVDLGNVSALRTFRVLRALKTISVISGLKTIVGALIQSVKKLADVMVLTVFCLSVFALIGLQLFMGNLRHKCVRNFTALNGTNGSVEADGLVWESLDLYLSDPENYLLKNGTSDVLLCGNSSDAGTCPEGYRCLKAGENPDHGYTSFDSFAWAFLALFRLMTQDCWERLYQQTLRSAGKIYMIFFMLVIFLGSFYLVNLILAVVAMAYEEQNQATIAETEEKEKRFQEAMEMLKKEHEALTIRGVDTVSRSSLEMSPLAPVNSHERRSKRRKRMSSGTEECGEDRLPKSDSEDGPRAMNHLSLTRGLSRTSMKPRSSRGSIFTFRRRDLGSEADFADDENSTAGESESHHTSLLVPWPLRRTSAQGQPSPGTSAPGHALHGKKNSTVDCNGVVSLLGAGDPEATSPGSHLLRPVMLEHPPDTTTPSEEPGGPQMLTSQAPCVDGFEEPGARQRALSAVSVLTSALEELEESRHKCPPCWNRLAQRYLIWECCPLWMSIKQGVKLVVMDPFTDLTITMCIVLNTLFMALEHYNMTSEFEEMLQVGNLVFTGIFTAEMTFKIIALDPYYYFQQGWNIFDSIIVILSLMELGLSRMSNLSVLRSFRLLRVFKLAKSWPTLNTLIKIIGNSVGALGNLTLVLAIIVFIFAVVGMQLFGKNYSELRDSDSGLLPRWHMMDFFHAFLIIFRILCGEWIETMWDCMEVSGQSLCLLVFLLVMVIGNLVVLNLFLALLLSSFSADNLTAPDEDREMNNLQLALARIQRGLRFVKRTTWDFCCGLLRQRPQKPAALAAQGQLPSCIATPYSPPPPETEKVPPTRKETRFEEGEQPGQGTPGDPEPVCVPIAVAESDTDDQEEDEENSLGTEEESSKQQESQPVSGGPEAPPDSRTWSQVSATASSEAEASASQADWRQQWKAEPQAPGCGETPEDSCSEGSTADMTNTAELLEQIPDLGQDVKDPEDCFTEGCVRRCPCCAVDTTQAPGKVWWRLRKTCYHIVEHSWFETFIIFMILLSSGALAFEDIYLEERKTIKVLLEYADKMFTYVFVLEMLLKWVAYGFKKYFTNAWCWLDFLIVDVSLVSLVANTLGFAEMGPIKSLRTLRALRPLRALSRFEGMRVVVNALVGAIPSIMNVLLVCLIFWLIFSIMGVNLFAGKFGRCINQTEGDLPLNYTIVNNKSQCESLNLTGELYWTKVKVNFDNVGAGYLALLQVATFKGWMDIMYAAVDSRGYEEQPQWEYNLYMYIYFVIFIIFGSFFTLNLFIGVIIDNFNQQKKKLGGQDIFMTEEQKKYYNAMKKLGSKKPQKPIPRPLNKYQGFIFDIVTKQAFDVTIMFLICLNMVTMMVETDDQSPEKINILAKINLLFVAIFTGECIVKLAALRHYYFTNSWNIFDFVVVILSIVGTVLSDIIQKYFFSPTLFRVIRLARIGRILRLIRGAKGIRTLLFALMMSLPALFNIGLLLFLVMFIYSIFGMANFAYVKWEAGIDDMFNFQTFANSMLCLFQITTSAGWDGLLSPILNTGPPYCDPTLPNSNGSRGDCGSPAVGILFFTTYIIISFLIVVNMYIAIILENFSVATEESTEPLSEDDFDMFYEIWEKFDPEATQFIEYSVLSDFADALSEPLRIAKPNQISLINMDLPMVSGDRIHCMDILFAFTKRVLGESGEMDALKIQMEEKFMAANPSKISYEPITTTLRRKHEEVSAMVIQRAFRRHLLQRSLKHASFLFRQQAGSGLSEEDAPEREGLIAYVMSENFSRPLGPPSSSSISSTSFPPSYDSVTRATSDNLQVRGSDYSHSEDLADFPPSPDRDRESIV

T1 sequence (O14649 whole entry): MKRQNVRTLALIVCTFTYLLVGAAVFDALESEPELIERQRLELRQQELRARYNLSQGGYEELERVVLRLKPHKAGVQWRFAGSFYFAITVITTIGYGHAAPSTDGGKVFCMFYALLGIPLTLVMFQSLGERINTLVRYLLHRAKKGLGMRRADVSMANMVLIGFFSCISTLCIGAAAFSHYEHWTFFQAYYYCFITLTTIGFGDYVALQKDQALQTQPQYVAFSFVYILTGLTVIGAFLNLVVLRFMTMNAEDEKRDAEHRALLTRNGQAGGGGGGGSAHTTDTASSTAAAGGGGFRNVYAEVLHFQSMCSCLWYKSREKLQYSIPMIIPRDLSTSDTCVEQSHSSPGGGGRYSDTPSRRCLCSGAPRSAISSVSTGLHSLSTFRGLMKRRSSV

EC50 (TASK-1): 0.186 ± 0.04 µM
SMILES: CC(C)OC(=O)CCC/C=C\C[C@@H]1[C@@H](/C=C/C(F)(F)COc2ccccc2)[C@H](O)C[C@@H]1O [tafluprost]
IC50 (NaV1.5): ~76 µM
